This is an account of results in ChEMBL document CHEMBL1145625, “QSAR study of mosquito repellents from terpenoid with a six-member-ring” (2008).

The subject of the test is Culex pipiens. As to the kind of experiment: Mosquito repellent activity in white mouse assessed as ratio of number of biting mosquito in treated to untreated control at 1.5 hrs. In kind it is functional.
As for `CCC(CCC1C2CCC(C2)C1(C)C)C(C)OC(C)=O` (stereo not given), the Ratio amounted to 51.5.

On to `CCC(=O)OCCC1C2CCC(C2)C1(C)C` (stereo not given), for which the Ratio is reported as 56.8.

Turning to `CC1=CCC(C(C)(C)O)CC1OC=O` (stereo not given), the Ratio amounted to 90.

As to `C=C(C)C1CC=C(CCOC(C)=O)CC1` (stereo not given), the Ratio is on record as 58.5.

`CCC(CCCC1C2CCC(C2)C1(C)C)OC(C)=O` (stereo not given): the Ratio is on record as 50.2.

In the case of `CC(=O)OCCC1C2CCC(C2)C1(C)C` (stereo not given), the Ratio came out at 53.

For the compound `CC1(C)C2CC=C(CCOC=O)C1C2` (stereo not given), the Ratio amounted to 56.1.

For `CCC(=O)OCCC1=CCC2CC1C2(C)C` (stereo not given), the Ratio is reported as 64.4.

For the compound `CCCC(CCCC1C2CCC(C2)C1(C)C)OC(C)=O` (stereo not given), the Ratio turned out to be 51.7.

For `CCCOCCC1=CCC2CC1C2(C)C` (stereo not given), the Ratio was 72.5.

Turning to `CCOCCC1=CCC2CC1C2(C)C` (stereo not given), the Ratio stood at 62.2.

With `CC(=O)OCCC1=CCC2CC1C2(C)C` (stereo not given), the Ratio is given as 60.8.

`CC1(C)C2CC3OC3(C)C1C2` (stereo not given): the Ratio was determined as 37.8.

With `C=C(C)C1CC=C(CCOC(=O)CC)CC1` (stereo not given), the Ratio came out at 63.6.

As to `COCCC1=CCC2CC1C2(C)C` (stereo not given), the Ratio is reported as 52.1.

As to `CC(=O)OC1CC(C(C)(C)O)CC=C1C` (stereo not given), the Ratio came out at 81.

As to `CC1(C)C2CC=C(CCO)C1C2` (stereo not given) [Nopol], the Ratio came out at 69.

For the compound `CCC(=O)OC1CC(C)CCC1C(C)C` (stereo not given), the Ratio came to 40.5.

For `CC(=O)OC1CC(C)CCC1C(C)C` (stereo not given), the Ratio amounted to 38.7.

In the case of `CC1CCC(C(C)C)C(O)C1` (stereo not given) [MENTHOL], the Ratio turned out to be 53.
